Experimental data as given in patent US5149845A, “Extractants for the separation of transition and related metal ions” (Yeda Research and Development Co. Ltd., priority 1988, dated 1992).

Assays:
[1] = octanol saline (1:1) partition; assay type: physicochemical; details: read-out: Partition Coefficients (converted)
Source text: Partition coefficients relate to octanol saline (1:1) partition

[2] = removal of Zn^2+ from an equimolar mixture of Zn^2+ and Cd^2+ (ion chromatography); details: 20 mM each Zn^2+ and Cd^2+; 3.0 mM carrier in chloroform
[3] = selective extraction and transport from an equimolar mixture of six bivalent metal ions through a CHCl3 bulk membrane (U-tube, ion chromatography)
Method: Several of the ion binders, when incorporated into bulk membranes, selectively extract and transport a specific metal ion from a plurality of cations. An example is the quantitative separation of Cu^2+ from a mixture of six two-valent metal ions. This is illustrated by the quantitative removal of Cu^2+ from an equimolar mixture (10 mM each) of Pb^2+, Cu^2+, Cd^2+, Co^2+, Zn^2+ and Ni^2+ in water.

[4] = removal of Cu^2+ from an equimolar mixture of Cu^2+ and Fe^3+; details: 3 mM each Cu^2+ and Fe^3+, 6 mM citric acid, pH 6.8 with KOH; 4.5 mM carrier in chloroform; receiver 3 mM DTPA at pH 2
Method: A third example is the removal of Cu^2+ from an equimolar mixture of Cu^2+ and Fe^3+ (3 mM each in the presence of 6 mM citric acid titrated to pH 6.8 with KOH) with less than 10% contamination of Fe^3+, by using a carrier (n=2, m=0, q=0, R^1 =CH3) 4.5 mM concentration in chloroform and in the receiver phase 3 mM DTPA at pH2.

logP [1] | Compound | further results
0.29 | CCCC(C)(COCC(=O)N(C)O)COCC(=O)N(C)O [q = 0, n=1, R^1=Me, R^2=Me, R^3=Pr] | –
-0.0862 | CN(O)C(=O)CCOCC(C)(C)COCCC(=O)N(C)O [q = 0, n=2, R^1=Me, R^2=Me, R^3=Me] | contamination of Fe^3+ on removal of Cu^2+ [4]: less than 10%
0.29 | CC(NC(=O)COCC(C)(C)COCC(=O)NC(C)C(=O)N(C)O)C(=O)N(C)O (stereo not drawn) [q = 1, n=1, R=Me, R^1=Me, R^2=Me, R^3=Me] | –

The remaining lines, values behind:

Compound | logP [1] | further results
CCOC(=O)CCN(O)C(=O)COCC(C)(C)COCC(=O)N(O)CCC(=O)OCC | 0.5 | –
CC(C)CC(NC(=O)COCC(C)(C)COCC(=O)NC(CC(C)C)C(=O)N(C)O)C(=O)N(C)O (stereo not drawn) | 0.568 | –
CC(C)C[C@H](NC(=O)CCOCC(C)(C)COCCC(=O)N[C@@H](CC(C)C)C(=O)N(C)O)C(=O)N(C)O | 1.2 | contamination of Cd^2+ on removal of Zn^2+ [2]: without any contamination of Cd^2+; removal of Cu^2+ from equimolar mixture ([3]; 10 mM each of Pb^2+, Cu^2+, Cd^2+, Co^2+, Zn^2+, Ni^2+ in water, 0.3 mM carrier in CHCl3, receiver 0.1 M H2SO4): quantitatively removed; contamination by other metals ([3]; 10 mM each of six metal ions, 0.3 mM carrier in CHCl3, receiver 0.1 M H2SO4, DIONEX ion chromatography): without a trace of contamination by other metals; metal content of receiver arm after extraction ([3]; after 160 hours, equimolar mixture of six cations (FIG. 1B)): containing only Cu^2+
CN(O)C(=O)COCC(C)(C)COCC(=O)N(C)O [q = 0, n=1, R^1=M, R^2=Me, R^3=Me] | 0.352 | –
